In brackets after ≈: the same amount, converted by molar mass.
Assays:
[1] = system: NF-kappa B transcriptional activity; assay: Evaluation of the NF-kappa B inhibition (β-gal reporter in immortalized HUVEC, IL-1 β induced); format: cell-based; conditions: Homo sapiens; HUVEC NF-kappaB β-gal reporter cells; IL-1 β induction; β-gal activity determined 16 hours after; read-out: NFkB inhibition activity IC50
Method: Evaluation of the NF-kappa B Inhibition
Cells used for the tests were those prepared by stably introducing E. coli β-galactosidase (β-gal) genes driven by SV 40 minimum promoter fused with 6 tandems of the NF-KappaB binding motif derived from immunoglobulin kappa light chain enhancer into human normal umbilical cord vein endothelial cells (HUVEC) immortalized with SV 40 large T antigen. The cells were subcultured in RPMI medium containing 10% of FBS, and were seeded on a 96-well plate in a concentration of 1×10^4/well on a day before the start of the experiments. A compound of the present invention was dissolved in DMSO to obtain a solution of a proper concentration, which was added into the 96-well plate so that the final DMSO concentration would be not higher than 1%. 30 minutes after the addition of the compound, in order to induce NF-kappa B transcriptional activity, […] of IL-1 β was added to each well so as to obtain the final concentration of […]. β-gal activity was determined 16 hours after with a chemiluminescent substrate (Galacton-Light-Plus: Boehringer Mannheim) according to a protocol attached to the reagent. A Luminescence detector (ATTO) was used for the determination.

anti-TTx antibody titer = assay: Antibody titer inhibition test (TTx-sensitized monkeys, ELISA); format: in vivo; conditions: Rhesus monkeys, 50 mg/kg orally twice daily for 4 weeks from TTx sensitization
Method: (§1) An antibody titer inhibition test and a delayed-type hypersensitivity reaction inhibition test
(§2) Rhesus monkeys (female, aged four to six) subjected to the test were sensitized with 6Lf of TTx (Tetanus Toxoid) both in the back skin and in the femur muscle under anesthesia by an intramuscular injection of ketamine. The subject drug at the dose of 50 mg/kg had been administered twice daily (7:00 am and 7:00 pm) for 4 weeks starting at the day of TTx sensitization. The drug was suspended with 0.5% Tween 80 solution and was orally administered using a gastric catheter. The control animals were administered with the vehicle in the same manner as those for the test article. One ml of blood was drawn from femoral vein of each animal twice a week to obtain sera with which the anti-TTx antibody titer was evaluated by the ELISA method. The antibody titer was determined with OD of serially-diluted serum from 1:100 by 2 times and was defined as the degree of dilution reaching to “an average OD of the antibody before immunization+2×SD”. One hour after the final administration in the morning on day 28, TTx was challenged once in the thoracic skin (10, 3, 1, 0.3, 0.1, 0.03 Lf/ml, 10 μl/site), and skin reactions at the injection sites were observed 24 and 48 hours after the TTx challenge. The delayed-type hypersensitivity reaction was scored according to the Draize dermal test criteria.

[2] = system: delayed-type hypersensitivity reaction; assay: Delayed-type hypersensitivity reaction inhibition test (TTx challenge in thoracic skin); format: in vivo; conditions: Rhesus monkeys, 50 mg/kg orally twice daily for 4 weeks; TTx challenge day 28, skin reactions 24 and 48 hours after, Draize criteria
Method: as §1, §2

SMILES | IC50 [1] | inhibiting effect on anti-TTx antibody titer (anti-TTx antibody titer) | inhibiting effect on delayed-type hypersensitivity reaction [2]
CC1(C)CC1C(=O)Nc1ccc(Oc2ccc(NC(=O)C3CC3(C)C)cn2)cc1 (stereo not shown) [Example 1] | 0.5 µg/mL (≈ 1.27 µM) |  | 
CC1(C)CC1C(=O)Nc1ccc(Sc2ccc(NC(=O)C3CC3(C)C)cn2)cc1 (stereo not shown) [Example 2] | 0.3 µg/mL (≈ 0.733 µM) |  | 
CC1(C)CC1C(=O)Nc1ccc(Nc2ccc(NC(=O)C3CC3(C)C)cn2)cc1 (stereo not shown) [Example 3] | 0.8 µg/mL (≈ 2.04 µM) |  | 
CC1(C)CC1C(=O)Nc1ccc(C(O)c2ccc(NC(=O)C3CC3(C)C)nc2)cc1 (stereo not shown) [Example 4] | 1 µg/mL (≈ 2.45 µM) |  | 
CC1(C)CC1C(=O)Nc1ccc(Cc2ccc(NC(=O)C3CC3(C)C)nc2)cc1 (stereo not shown) [Example 5] | 0.9 µg/mL (≈ 2.3 µM) |  | 
CC1(C)CC1C(=O)Nc1ccc(C(O)c2ccc(NC(=O)C3CC3(C)C)cn2)cc1 (stereo not shown) [Example 6] | 0.4 µg/mL (≈ 0.982 µM) |  | 
CC1(C)CC1C(=O)Nc1ccc(Cc2ccc(NC(=O)C3CC3(C)C)cn2)cc1 (stereo not shown) [Example 7] | 1.5 µg/mL (≈ 3.83 µM) |  | 
CC1(C)CC1C(=O)Nc1ccc(Oc2ccc(NC(=O)C3CC3(C)C)nn2)cc1 (stereo not shown) [Example 8] | 1.5 µg/mL (≈ 3.8 µM) |  | 
CC1(C)CC1C(=O)Nc1ccc(Nc2ncc(NC(=O)C3CC3(C)C)cn2)cc1 (stereo not shown) [Example 9] | 0.7 µg/mL (≈ 1.78 µM) |  | 
CC1(C)CC1C(=O)Nc1ccc(CSc2ccc(NC(=O)C3CC3(C)C)cn2)cc1 (stereo not shown) [Example 14] | 0.015 µg/mL (≈ 0.0354 µM) |  | 
Cc1cc(Oc2ccc(NC(=O)C3CC3(C)C)cn2)ccc1NC(=O)C1CC1(C)C (stereo not shown) [Example 22] | 0.15 µg/mL (≈ 0.368 µM) |  | 
O=C(Nc1ccc(Oc2ccc(NC(=O)C3CC3(Cl)Cl)cn2)cc1)C1CC1(Cl)Cl (stereo not shown) [Example 26] | 0.15 µg/mL (≈ 0.316 µM) |  | 
CC1CCCCC1C(=O)Nc1ccc(Oc2ccc(NC(=O)C3CCCCC3C)cn2)cc1 (stereo not shown) [Example 29] | 1 µg/mL (≈ 2.22 µM) |  | 
CC1(C)CC1C(=O)Nc1ccc(Oc2ccc(NC(=O)c3ccccc3)cc2)nc1 (stereo not shown) [Example 31] | 1.5 µg/mL (≈ 3.74 µM) |  | 
CC1(C)CC1C(=O)Nc1ccc(Oc2ccc(NC(=O)Cc3ccccc3)cc2)nc1 (stereo not shown) [Example 32] | 0.1 µg/mL (≈ 0.241 µM) |  | 
CC1(C)CC1C(=O)Nc1ccc(Oc2ccc(NC(=O)Cc3ccc(Cl)cc3)cc2)nc1 (stereo not shown) [Example 33] | 0.2 µg/mL (≈ 0.445 µM) |  | 
COc1ccc(CC(=O)Nc2ccc(Oc3ccc(NC(=O)C4CC4(C)C)cn3)cc2)cc1 (stereo not shown) [Example 34] | 0.3 µg/mL (≈ 0.673 µM) |  | 
CC1(C)CC1C(=O)Nc1ccc(Oc2ccc(NC(=O)CCCc3ccccc3)cc2)nc1 (stereo not shown) [Example 37] | 0.09 µg/mL (≈ 0.203 µM) |  | 
CC1(C)CC1C(=O)Nc1ccc(Oc2ccc(NCCc3ccccc3)cc2)nc1 (stereo not shown) [Example 38] | 0.05 µg/mL (≈ 0.125 µM) |  | 
CC1(C)CC1C(=O)Nc1ccc(Oc2ccc(NCCCc3ccccc3)cc2)nc1 (stereo not shown) [Example 39] | 0.035 µg/mL (≈ 0.0842 µM) |  | 
CC1(C)C[C@@H]1C(=O)Nc1ccc(Oc2ccc(NC(=O)[C@H]3CC3(C)C)cn2)cc1 [Example 43] | 0.25 µg/mL (≈ 0.635 µM) | exhibited its inhibiting effect | exhibited its inhibiting effect
CC1(C)C[C@@H]1C(=O)Nc1ccc(Oc2ccc(NC(=O)[C@@H]3CC3(C)C)cc2)nc1 [Example 44] | 0.1 µg/mL (≈ 0.254 µM) |  | 
CC1(C)C[C@@H]1C(=O)Nc1ccc(Oc2ccc(NC(=O)[C@@H]3CC3(C)C)cn2)cc1 [Example 45] | 1 µg/mL (≈ 2.54 µM) |  | 
